From US20190275145A1, “PARTICULATE VACCINE FORMULATIONS” (PDS BIOTECHNOLOGY CORPORATION, priority 2011, published 2019)

Test system: HPV-positive tumors (TC-1 cells)
Experiment: Tumor regression efficacy of R-DOTAP/S-DOTAP with HPV-16 E7 peptide antigen (encapsulated or micelles) in TC-1 tumor-bearing mice
Details: mouse, in vivo
Method: Subcutaneous HPV-positive tumors were established in mice by injecting […] TC-1 cells into the flank of each mouse on day 0. On day 6, the mice received a single subcutaneous injection of the formulations in a 0.10 ml injection.
The anti-tumor efficacy of vaccine formulations can be evaluated by evaluating tumor regression. In this example, the vaccine formulation comprises cationic lipid nanoparticles and a peptide antigen assembly in a tubular structure. Furthermore, the exemplary cationic lipid in the present example is R-DOTAP and the exemplary antigen assembly is an HPV-16 E7 micelle.
In this example, H-2Db restricted CTL epitope (amino acid 49-57, RAHYNIVTF [SEQ. ID. NO. 1]) derived from HPV 16 E7 protein was extended to amino acids 43-57, GQAEPDRAHYNIVTF, [SEQ. ID. No. 2]. SEQ. ID. No. 2 was then further extended with the amino acids KSS, and a hydrophobic palmitoyl chain was attached to the elongated peptide.
However, formulating the peptide antigen sequence into a particulate structure comprised only of SEQ. ID. No. 3 allows higher doses of the antigen to be delivered compared to delivery via a cationic lipid adjuvant delivery system. Thus, an effective means of overcoming the weak antigenicity of the peptide can be obtained.
To evaluate this approach, HPV-positive tumors were established as described in Example 3 above. […]

Sequence	antigenicity when formulated and evaluated
RAHYNIVTF (listed as Homo sapiens) [SEQ. ID. No. 1]	weak antigen
GQAEPDRAHYNIVTF (listed as Homo sapiens) [SEQ. ID. No. 2, HPV 16 E7 amino acids 43-57]	weak antigen
